The structures appear in SMILES notation.

One assay addresses T1, human PAH with the R408W mutation (Homo sapiens, UniProt P00439, R408W).
T1 construct: expressed in transfected cells
T1 sequence (P00439 1-452 R408W): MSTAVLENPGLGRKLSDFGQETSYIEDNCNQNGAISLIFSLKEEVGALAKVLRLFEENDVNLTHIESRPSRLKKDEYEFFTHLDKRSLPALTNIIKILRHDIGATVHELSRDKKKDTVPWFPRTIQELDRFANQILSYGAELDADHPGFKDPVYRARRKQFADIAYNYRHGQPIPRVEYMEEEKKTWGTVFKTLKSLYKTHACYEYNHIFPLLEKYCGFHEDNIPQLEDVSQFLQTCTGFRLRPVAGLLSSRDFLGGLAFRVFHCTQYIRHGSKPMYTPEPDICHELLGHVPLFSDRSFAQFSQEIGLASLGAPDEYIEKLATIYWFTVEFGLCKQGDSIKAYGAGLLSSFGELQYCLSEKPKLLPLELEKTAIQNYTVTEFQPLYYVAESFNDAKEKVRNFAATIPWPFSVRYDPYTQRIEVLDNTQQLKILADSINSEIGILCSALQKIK
In words: Cell Based Phenylalanine Flux Assay.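 Further: Ten-point dose curve from 2-fold serial dilutions, run in duplicate at 0.5% DMSO final, tracer step used 20 µM sepiapterin and 800 µM labeled phenylalanine.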 Further details: scale not given here. To be noted: A375 cells expressing R408W PAH; 24 hrs with compound, then 20 μM sepiapterin and 800 μM 13C9,15N-Phenylalanine for 4 hours; 13C-Tyrosine in media by LC-MS; average where tested multiple times.
For the compound `COc1cccn2nc(C3c4nc[nH]c4CCN3C(=O)c3ncnn3C)cc12` (stereo not drawn), the AC50 result was “E, E”.

The same assay, now with this note: A375 cells expressing R408W PAH; 24 hrs with compound, then 20 μM sepiapterin and 800 μM 13C9,15N-Phenylalanine for 4 hours; 13C-Tyrosine in media by LC-MS; average where tested multiple times; read-out: AC50.
On to `O=C(c1nnc(-c2cc[nH]n2)o1)N1CCc2[nH]cnc2C1c1cc2ccccn2n1` (stereo not drawn), for which the AC50 lay in the range of 1000 to 5000 nM.

In the case of `Fc1cccn2nc([C@@H]3c4nc[nH]c4CCN3c3nnc(-c4cccnn4)o3)cc12` (single isomer, unassigned), the AC50 is 1000 to 5000 nM.

For the compound `Cn1cncc1-c1nnc(C(=O)N2CCc3[nH]cnc3[C@H]2c2cc3cccc(C(F)(F)F)n3n2)o1` (single isomer, unassigned), the AC50 was in the range of 1000 to 5000 nM.

Turning to `Cn1cncc1-c1nnc(C(=O)N2CCc3[nH]cnc3C2c2cc3c(C(F)(F)F)cccn3n2)o1` (single isomer, unassigned) [4S enantiomer of 2-(1-methyl-1H-imidazol-5-yl)-5-14-[4-(trif], the AC50 fell in the range of 1000 to 5000 nM.

The assay is the same for the next values; noted with them: A375 cells expressing human R408W PAH; 24 hrs compound incubation; 13C-Tyrosine by LC-MS; average where tested multiple times; read-out: AC50.
As for `Cc1cccc(-c2nnc(C(=O)N3CCc4[nH]cnc4[C@H]3c3cc4ccccn4n3)o2)n1` [Example 1382, (S)-(5-(6-methylpyridin-2-yl)-1,3,4-oxadiazol-2-yl)(4-(pyrazolo[1,5-a]pyridin-2-yl)-6,7-dihydro-1H-imidazo[4,5-c]pyridin-5(4H)-yl)methanone], the AC50 is less than 500 nM.

As to `Cc1cccn2nc([C@H]3c4nc[nH]c4CCN3C(=O)c3nnc(-c4ccn(C)n4)o3)cc12` [Example 742, (R)-(5-(1-methyl-1H-pyrazol-3-yl)-1,3,4-oxadiazol-2-yl)(4-(4-methylpyrazolo[1,5-a]pyridin-2-yl)-6,7-dihydro-1H-imidazo [4,5-c]pyridin-5(4H)-yl)methanone], the AC50 is greater than 5000 nM.

`O=C(c1nnc(-c2cnn(C(F)F)c2)o1)N1CCc2[nH]cnc2[C@H]1c1cc2cccc(F)n2n1` [Example 984, (S)-(5-(1-(difluoromethyl)-1H-pyrazol-4-yl)-1,3,4-oxadiazol-2-yl)(4-(7-fluoropyrazolo[1,5-a]pyridin-2-yl)-6,7-dihydro-1H-imidazo [4,5-c]pyridin-5(4H)-yl)methanone]: the AC50 lay in the range of 500 to 1000 nM.

With `CCOc1cccc2cc(C3c4nc[nH]c4CCN3C(=O)c3oc(C(C)(C)O)nc3C(F)F)nn12` (stereo in doubt) [Example 1245, (S)-(4-(difluoromethyl)-2-(2-hydroxypropan-2-yl)oxazol-5-yl)(4-(7-ethoxypyrazolo [1,5-a]pyridin-2-yl)-6,7-dihydro-1H-imidazo[4,5-c]pyridin-5(4H)-yl)methanone], the AC50 was 500 to 1000 nM.

For `Cc1ncccc1-c1nnc(C(=O)N2CCc3[nH]cnc3[C@@H]2c2cc3ccccn3n2)o1` [Example 1365, (R)-(5-(2-methylpyridin-3-yl)-1,3,4-oxadiazol-2-yl)(4-(pyrazolo[1,5-a]pyridin-2-yl)-6,7-dihydro-1H-imidazo[4,5-c]pyridin-5(4H)-yl)methanone], the AC50 was greater than 5000 nM.

Consider `Cc1cc(-c2nnc(C(=O)N3CCc4[nH]cnc4[C@H]3c3cc4c(F)cccn4n3)o2)nn1C` [Example 883, (S)-(5-(1,5-dimethyl-1H-pyrazol-3-yl)-1,3,4-oxadiazol-2-yl)(4-(4-fluoropyrazolo[1,5-a]pyridin-2-yl)-6,7-dihydro-1H-imidazo[4,5-c]pyridin-5(4H)-yl)methanone], for which the AC50 was less than 500 nM.

The same assay, now with this note: A375 cells expressing human R408W PAH; 24 hrs with compound, then sepiapterin and 13C9,15N-Phenylalanine for 4 hours; 13C-Tyrosine by LC-MS; average where tested multiple times; read-out: AC50.
Turning to `CC(C)c1nnc(C(=O)N2CCc3[nH]cnc3[C@@H]2c2cc3cccc(F)n3n2)o1` [Example 1554], the AC50 was greater than 5000 nM.

With `COc1cccn2nc([C@@H]3c4nc[nH]c4CCN3C(=O)c3cnn4cc(-c5ccn(C)n5)ccc34)cc12` [Example 1748, (S)-(4-(4-methoxypyrazolo [1,5-a]pyridin-2-yl)-6,7-dihydro-1H-imidazo[4,5-c]pyridin-5(4H)-yl)(6-(1-methyl-1H-pyrazol-3-yl)pyrazolo[1,5-a]pyridin-3-yl)methanone], the AC50 lay within 500 to 1000 nM.

As to `O=C(c1nnc(-c2cnccn2)o1)N1CCc2[nH]cnc2[C@@H]1c1cc2c(C(F)F)cccn2n1` [Example 1415, (R)-(4-(4-(difluoromethyl)pyrazolo[1,5-a]pyridin-2-yl)-6,7-dihydro-1H-imidazo [4,5-c]pyridin-5(4H)-yl)(5-(pyrazin-2-yl)-1,3,4-oxadiazol-2-yl)methanone], the AC50 was 1000 to 5000 nM.

For `O=C(c1nnc(-c2ccn(C(F)(F)F)n2)o1)N1CCc2[nH]cnc2[C@H]1c1cc2c(Cl)cccn2n1` [Example 1476, (S)-(4-(4-chloropyrazolo [1,5-a]pyridin-2-yl)-6,7-dihydro-1H-imidazo[4,5-c]pyridin-5(4H)-yl)(5-(1-(trifluoromethyl)-1H-pyrazol-3-yl)-1,3,4-oxadiazol-2-yl)methanone], the AC50 was less than 500 nM.

Turning to `Cc1ncccc1-c1nnc(N2CCc3[nH]cnc3[C@H]2c2cc3c(C)cccn3n2)o1` [Example 2206, (S)-2-(4-(4-methylpyrazolo [1,5-a]pyridin-2-yl)-1,4,6,7-tetrahydro-5H-imidazo [4,5-c]pyridin-5-yl)-5-(2-methylpyridin-3-yl)-1,3,4-oxadiazole], the AC50 was 500 to 1000 nM.

`Cc1cc(-c2nnc(C(=O)N3CCc4[nH]cnc4[C@H]3c3cc4c(F)cccn4n3)o2)n[nH]1` [Example 2295, (S)-(4-(4-fluoropyrazolo [1,5-a]pyridin-2-yl)-1,4,6,7-tetrahydro-5H-imidazo[4,5-c]pyridin-5-yl)(5-(5-methyl-1H-pyrazol-3-yl)-1,3,4-oxadiazol-2-yl)methanone]: the AC50 was 500 to 1000 nM.

For `Cn1nccc1-c1nnc(C(=O)N2CCc3[nH]cnc3[C@@H]2c2cc3c(C(F)F)cccn3n2)o1` [Example 1533, (R)-(4-(4-(difluoromethyl)pyrazolo[1,5-a]pyridin-2-yl)-6,7-dihydro-1H-imidazo [4,5-c]pyridin-5(4H)-yl)(5-(1-methyl-1H-pyrazol-5-yl)-1,3,4-oxadiazol-2-yl)methanone], the AC50 is greater than 5000 nM.

Regarding `Cc1cnn(C)c1-c1nnc(C(=O)N2CCc3[nH]cnc3[C@H]2c2cc3c(C(F)F)cccn3n2)o1` [Example 1568, (S)-(4-(4-(difluoromethyl)pyrazolo[1,5-a]pyridin-2-yl)-6,7-dihydro-1H-imidazo [4,5-c]pyridin-5(4H)-yl)(5-(1,4-dimethyl-1H-pyrazol-5-yl)-1,3,4-oxadiazol-2-yl)methanone], the AC50 is less than 500 nM.

Take `Cc1cccc2cc([C@@H]3c4nc[nH]c4CCN3c3ccc(C(F)(F)F)cn3)nn12` [Example 2097, (S)-4-(7-methylpyrazolo [1,5-a]pyridin-2-yl)-5-(5-(trifluoromethyl)pyridin-2-yl)-4,5,6,7-tetrahydro-1H-imidazo[4,5-c]pyridine]: the AC50 lay within 500 to 1000 nM.

Take `Cc1cccc(-c2nnc(N3CCc4[nH]cnc4[C@H]3c3cc4ccccn4n3)o2)n1` [Example 2342, (S)-2-(6-methylpyridin-2-yl)-5-(4-(pyrazolo[1,5-a]pyridin-2-yl)-1,4,6,7-tetrahydro-5H-imidazo[4,5-c]pyridin-5-yl)-1,3,4-oxadiazole]: the AC50 lay within 1000 to 5000 nM.

Regarding `CC(C)(F)c1nnc(C(=O)N2CCc3[nH]cnc3[C@@H]2c2cc3c(C4CC4)cccn3n2)o1` [Example 2060], the AC50 is greater than 5000 nM.

For the compound `Cc1cccc(-c2nnc(C(=O)N3CCc4[nH]cnc4[C@H]3c3cc4cccc(C)n4n3)o2)n1` [Example 1398, (S)-(4-(7-methylpyrazolo [1,5-a]pyridin-2-yl)-6,7-dihydro-1H-imidazo[4,5-c]pyridin-5(4H)-yl)(5-(6-methylpyridin-2-yl)-1,3,4-oxadiazol-2-yl)methanone], the concentration at half-maximal activity (AC50) is less than 500 nM.

Turning to `Cc1c(-c2nnc(C(=O)N3CCc4[nH]cnc4[C@H]3c3cc4c(OC(F)(F)F)cccn4n3)o2)cnn1C` [Example 1684, (S)-(5-(1,5-dimethyl-1H-pyrazol-4-yl)-1,3,4-oxadiazol-2-yl)-(4-(4-(trifluoromethoxy)pyrazolo[1,5-a]pyridin-2-yl)-6,7-dihydro-1H-imidazo [4,5-c]pyridin-5(4H)-yl)methanone], the AC50 is less than 500 nM.

On to `Cc1cc(-c2nnc(C(=O)N3CCc4[nH]cnc4[C@@H]3c3cc4cccc(C(F)F)n4n3)o2)nn1C` [Example 1536, (R)-(4-(7-(difluoromethyl)pyrazolo[1,5-a]pyridin-2-yl)-6,7-dihydro-1H-imidazo[4,5-c]pyridin-5(4H)-yl)(5-(1,5-dimethyl-1H-pyrazol-3-yl)-1,3,4-oxadiazol-2-yl)methanone], for which the AC50 is greater than 5000 nM.

In the case of `Cn1cc(-c2ccc3c(C(=O)N4CCc5[nH]cnc5[C@H]4c4cc5c(C(F)(F)F)cccn5n4)cnn3c2)cn1` [Example 1552, (S)-(6-(1-methyl-1H-pyrazol-4-yl)pyrazolo[1,5-a]pyridin-3-yl)(4-(4-(trifluoromethyl)pyrazolo[1,5-a]pyridin-2-yl)-6,7-dihydro-1H-imidazo[4,5-c]pyridin-5(4H)-yl)methanone], the AC50 is less than 500 nM.

Turning to `Cc1cccn2nc([C@H]3c4nc[nH]c4CCN3c3nnc(-c4cccnc4F)o3)cc12` [Example 2265, (R)-2-(2-fluoropyridin-3-yl)-5-(4-(4-methylpyrazolo[1,5-a]pyridin-2-yl)-1,4,6,7-tetrahydro-5H-imidazo[4,5-c]pyridin-5-yl)-1,3,4-oxadiazole], the half-maximal activity concentration (AC50) is greater than 5000 nM.

For orientation: AC50 means the midpoint of the concentration-response curve, whichever way the signal moves.

Values taken from patent publication US12673961B2 (Agios Pharmaceuticals, Inc., priority 2022, dated 2026).
